{"source": "paper PMC5458078", "about": "“Global mapping of CARM1 substrates defines enzyme specificity and substrate recognition” (Nature Communications, 2017)", "key": {"MCF7 cells": {"system": "MCF7 cells", "experiment": "Quantitative nanoLC-MS/MS (TMT) of ADMA-containing peptides, CARM1 KO vs parental", "assay_type": "cell-based, human", "set-up": "Fold change KO/WT: scale not given here"}, "MCF7 CARM1 KO cells": {"system": "MCF7 CARM1 KO cells", "experiment": "Quantitative MS of ADMA-containing peptides in MCF7 CARM1 KO cells expressing CARM1 28-608 or CARM1 140-608, and in CARM1 KO", "assay_type": "cell-based, human"}, "[1]": {"settings": "MCF7, CARM1 KO (KO1-KO3) vs wild type (WT1-WT3)"}, "[2]": {"settings": "CARM1 KO vs wild type MCF7 cells, 3 biological replicates each"}, "[3]": {"settings": "ADMA-containing peptide, MCF7, CARM1 knockout (KO1-3) vs wild type (WT1-3), TMT 6-plex experiment #1"}, "[4]": {"settings": "ADMA-containing peptide, CARM1 knockout (KO) vs wild type (WT) MCF7 cells, 6-plex TMT experiment #1, three biological replicates each, sheet \"MCF7\""}, "[5]": {"settings": "MCF7 CARM1 knockout vs wild type, 3 biological replicates each, values are on log2 scale"}, "[6]": {"settings": "MCF7, CARM1 KO vs WT, three biological replicates each"}, "[7]": {"settings": "MCF7, CARM1 knockout vs wild type, n = 3 each"}, "[8]": {"settings": "ratio on log2 scale, mean of 3 replicates"}}, "data": [{"substance": "MGTPVPRPPQDMGQIGVrTPLGPrVAAPVGPVGPTPTVLPMGAPVPrPRGPPPPPGDENR", "values": [{"measurement": "Fold change KO/WT", "setting": "MCF7 cells; [1]", "result": -1.953}]}, {"substance": "GAEAANVTGPDGVPVEGSrYAADR", "values": [{"measurement": "Fold change KO/WT", "setting": "MCF7 cells; [2]", "result": -1.299}]}, {"substance": "NrGFYPWGQYNrGGYGNYR", "values": [{"measurement": "Fold change KO/WT", "setting": "MCF7 cells; [3]", "result": -0.1483}]}, {"substance": "PVPPPPAPPPPPTFALANTEKPTLNKTEQAGrNALLSDISK", "values": [{"measurement": "Fold change KO/WT", "setting": "MCF7 cells; [2]", "result": -1.049}]}, {"substance": "QVTITGSAASISLAQYLINAr", "values": [{"measurement": "Fold change KO/WT", "setting": "MCF7 cells; [4]", "result": -0.8472}]}, {"substance": "SLGSVQAPSYGARPVSSAASVYAGAGGSGSrISVSR", "values": [{"measurement": "Fold change KO/WT", "setting": "MCF7 cells; [5]", "result": -1.494}]}, {"substance": "DLYANTVLSGGSTMYPGIADr", "values": [{"measurement": "Fold change KO/WT", "setting": "MCF7 cells; [6]", "result": 0.2012}]}, {"substance": "QLrMQLQQR", "values": [{"measurement": "Fold change KO/WT", "setting": "MCF7 cells; [4]", "result": -2.307}]}, {"substance": "MGTPVPrPPQDMGQIGVRTPLGPR", "values": [{"measurement": "Fold change KO/WT", "setting": "MCF7 cells; [1]", "result": -2.466}]}, {"substance": "TYSEVYPGQQYLQGGQYAPSTAQFAPSPGQPPAPSPSYPGHrLPLQQGMTQSLSVPGPTGLHYKPTR", "values": [{"measurement": "Fold change KO/WT", "setting": "MCF7 cells; [2]", "result": -2.904}]}, {"substance": "SNSGPYrGGYGGGGGYGGSSF", "values": [{"measurement": "Fold change KO/WT", "setting": "MCF7 cells; [7]", "result": -0.1493}]}, {"substance": "ICEGIrPQIMNGPLHPRPLVALLDGR", "values": [{"measurement": "CARM1 140-608/WT", "setting": "MCF7 CARM1 KO cells; [8]", "result": -0.2372}, {"measurement": "KO/WT", "setting": "MCF7 CARM1 KO cells; [8]", "result": -0.9025}]}, {"substance": "AYGQQYWGQPGNrGGYR", "values": [{"measurement": "Fold change KO/WT", "setting": "MCF7 cells; [5]", "result": -0.04736}]}, {"substance": "GGFQNrGGGSGGGGNYrGGFNR", "values": [{"measurement": "Fold change KO/WT", "setting": "MCF7 cells; [5]", "result": 0.1419}]}, {"substance": "LLGQRPGPYDrPIGGRGGYYGAGrGSMYDR", "values": [{"measurement": "Fold change KO/WT", "setting": "MCF7 cells; [5]", "result": 0.09272}]}, {"substance": "TGFTNIPSrYGTNNR", "values": [{"measurement": "Fold change KO/WT", "setting": "MCF7 cells; [1]", "result": -2.195}]}, {"substance": "CAGFLEPTWLAAPPRLArPPR", "values": [{"measurement": "Fold change KO/WT", "setting": "MCF7 cells; [7]", "result": -1.124}]}, {"substance": "GTPVrGAITR", "values": [{"measurement": "Fold change KO/WT", "setting": "MCF7 cells; [5]", "result": -0.02001}]}, {"substance": "EHGAAASErLQLGTPPPLLAArLVPPR", "values": [{"measurement": "CARM1 140-608/WT", "setting": "MCF7 CARM1 KO cells; CARM1 140-608 versus WT, mean of three replicates (log2)", "result": -0.1041}, {"measurement": "KO/WT", "setting": "MCF7 CARM1 KO cells; KO versus WT, mean of three replicates (log2)", "result": -0.4942}]}, {"substance": "QQQQQQQQQQQQLDLLFHQrIQISLWPR", "values": [{"measurement": "Fold change KO/WT", "setting": "MCF7 cells; [7]", "result": -2.494}]}, {"substance": "TGALPGPGPLSNPrLGGLPGPGPMSNPrAGGLLGAGPDPrGGGPMGPGSGPNLR", "values": [{"measurement": "Fold change KO/WT", "setting": "MCF7 cells; [6]", "result": -2.513}]}, {"substance": "QGSIGLYTQNQPLPAGGPRVDPYrPVRLPMQK", "values": [{"measurement": "Fold change KO/WT", "setting": "MCF7 cells; [4]", "result": -1.665}]}, {"substance": "FFHMPrFQHQAPrQLFYK", "values": [{"measurement": "Fold change KO/WT", "setting": "MCF7 cells; [2]", "result": -1.814}]}, {"substance": "LPPDRYCLTAPNYrLK", "values": [{"measurement": "Fold change KO/WT", "setting": "MCF7 cells; [3]", "result": -0.4021}]}, {"substance": "AGPrLLLIPVQQGSPTLRPVSNTQLQGHrMVLQPVR", "values": [{"measurement": "Fold change KO/WT", "setting": "MCF7 cells; [4]", "result": -0.6769}]}, {"substance": "SYSrGGGDQGYGSGR", "values": [{"measurement": "Fold change KO/WT", "setting": "MCF7 cells; [1]", "result": -0.3099}]}, {"substance": "INPGLEYrQHLLLrGPPPGSANPPR", "values": [{"measurement": "Fold change KO/WT", "setting": "MCF7 cells; [5]", "result": -0.6044}]}, {"substance": "SSGSPYGGGYGSGGGSGGYGSrRF", "values": [{"measurement": "Fold change KO/WT", "setting": "MCF7 cells; [7]", "result": -0.5008}]}, {"substance": "LDrICEGIRPQIMNGPLHPRPLVALLDGR", "values": [{"measurement": "Fold change KO/WT", "setting": "MCF7 cells; [7]", "result": -0.535}]}, {"substance": "LISVQTMQrGNMNCGAFQAHQMR", "values": [{"measurement": "Fold change KO/WT", "setting": "MCF7 cells; [3]", "result": -0.03531}]}, {"substance": "MrPQPYGGTNPYSQQQGPPSGPQQGHGYPGQPYGSQTPQrYPMTMQGR", "values": [{"measurement": "Fold change KO/WT", "setting": "MCF7 cells; [6]", "result": -3.351}]}, {"substance": "LQHMQQQQPPPrLINFQNHSPKPNGPVLPPHPQQLrYPPNQNIPR", "values": [{"measurement": "Fold change KO/WT", "setting": "MCF7 cells; [3]", "result": -0.9847}]}, {"substance": "LPNRDFAFYNPrLQGK", "values": [{"measurement": "Fold change KO/WT", "setting": "MCF7 cells; [6]", "result": -1.34}]}, {"substance": "LTrGQLQHLGTR", "values": [{"measurement": "Fold change KO/WT", "setting": "MCF7 cells; [2]", "result": 0.1695}]}, {"substance": "TGALPGPGPLSNPrLGGLPGPGPMSNPrAGGLLGAGPDPR", "values": [{"measurement": "Fold change KO/WT", "setting": "MCF7 cells; [6]", "result": -2.931}]}, {"substance": "MGTPVPRPPQDMGQIGVrTPLGPR", "values": [{"measurement": "CARM1 140-608/WT", "setting": "MCF7 CARM1 KO cells; CARM1 140-608 vs WT, mean of 3 replicates (log2 scale)", "result": -1.0135}, {"measurement": "KO/WT", "setting": "MCF7 CARM1 KO cells; KO vs WT, mean of 3 replicates (log2 scale)", "result": -2.444}]}, {"substance": "FEGSPGLrFEGSPGGLrFEGPGGQPVGGLrFEGHR", "values": [{"measurement": "Fold change KO/WT", "setting": "MCF7 cells; [4]", "result": -0.8785}]}, {"substance": "MGTPVPRPPQDMGQIGVrTPLGPRVAAPVGPVGPTPTVLPMGAPVPrPR", "values": [{"measurement": "Fold change KO/WT", "setting": "MCF7 cells; [1]", "result": -3.4667}]}, {"substance": "GPSGGYrGSGGFQrGGGrGAYGTGYFGQGR", "values": [{"measurement": "Fold change KO/WT", "setting": "MCF7 cells; [7]", "result": 0.2112}]}, {"substance": "MQLQQrLQGQQFLNQSrQALELK", "values": [{"measurement": "Fold change KO/WT", "setting": "MCF7 cells; [4]", "result": -3.454}]}, {"substance": "MGTPVPRPPQDMGQIGVRTPLGPrVAAPVGPVGPTPTVLPMGAPVPrPrGPPPPPGDENR", "values": [{"measurement": "Fold change KO/WT", "setting": "MCF7 cells; [1]", "result": -3.578}]}, {"substance": "SPYTTTrYGSPINTFTVRPGTR", "values": [{"measurement": "CARM1 140-608/WT", "setting": "MCF7 CARM1 KO cells; CARM1 140-608 vs WT, mean of 3 replicates, log2", "result": -0.1037}, {"measurement": "KO/WT", "setting": "MCF7 CARM1 KO cells; KO vs WT, mean of 3 replicates, log2", "result": -2.259}]}, {"substance": "AAGMTPLYAGQrLPQHGYPGPPQAQPLPrQGVK", "values": [{"measurement": "Fold change KO/WT", "setting": "MCF7 cells; [2]", "result": -1.882}]}, {"substance": "TLLrGGMSLrGQNLLrGGR", "values": [{"measurement": "Fold change KO/WT", "setting": "MCF7 cells; [6]", "result": 0.06328}]}, {"substance": "QGSIGLYTQNQPLPAGGPrVDPYrPVRLPMQK", "values": [{"measurement": "Fold change KO/WT", "setting": "MCF7 cells; [4]", "result": -2.102}]}, {"substance": "LSLPPIHTLYQPrFGNSQSFTSK", "values": [{"measurement": "Fold change KO/WT", "setting": "MCF7 cells; [3]", "result": -2.191}]}, {"substance": "RPQLYGMGSNPHSQPQQSSPYPGGSYGPPGPQrYPIGIQGR", "values": [{"measurement": "Fold change KO/WT", "setting": "MCF7 cells; [6]", "result": -1.511}]}]}
